# How the values were obtained:
# L-Selectin = target: T1, L-Selectin (Homo sapiens, UniProt P14151); experiment: ELISA: inhibition of L-selectin/IgG binding to immobilized heparin (Heparin-BSA); settings: L-Selectin binding to heparin; 50 μM
# T1 construct: purchased Research and Development Systems 728-LS
# T1 sequence (P14151 39-332 limits assumed): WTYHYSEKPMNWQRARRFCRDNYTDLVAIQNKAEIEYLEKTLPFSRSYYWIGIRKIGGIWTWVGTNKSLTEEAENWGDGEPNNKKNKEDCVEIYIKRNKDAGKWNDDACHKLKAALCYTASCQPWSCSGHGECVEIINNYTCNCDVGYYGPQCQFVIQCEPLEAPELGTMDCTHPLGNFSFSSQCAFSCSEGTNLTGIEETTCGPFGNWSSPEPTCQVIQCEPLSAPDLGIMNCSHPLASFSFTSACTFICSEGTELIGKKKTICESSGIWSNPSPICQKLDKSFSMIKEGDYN
# Protocol: The inhibitory effect of the compounds of the present invention can be evaluated by several methods in vitro. One assay for measuring GAG-ECAM binding, exemplified herein below, detects the binding of L selectin/IgG to immobilized heparin. Another assay utilizes immobilized L-selectin, or L-selectin fused to protein domains other than IgG. The amount of bound L-selectin is determined by an ELISA assay using, for example, a monoclonal antibody raised against L-selectin, which is conjugated to horseradish peroxidase. […] The Dregg-55 antibody was also shown to inhibit L-selectin-dependent adhesion in vitro, neutrophil accumulation in vitro and inflammation in vivo (Co M. S. et al, Immunotechnology 493: 253-266, 1999).
# An in vitro assay was used to assess the ability of test compounds according to formula I to inhibit the interactions of L-selectin with HS-GAGs. The assay was suitable for determining the concentration required for 50% inhibition (IC-50) for each specific compound. In the assay, the GAG used was heparin. Thus, porcine intestinal mucosa heparin conjugated to Bovine Serum Albumin (Heparin-BSA; Sigma Cat. No. H0403) at […] in Phosphate Buffered Saline (PBS; pH 6.5) was added to a 96 well polystyrene ELISA plate (NUNC Cat. No. 442404; 0.1 ml per well) and incubated Over Night (ON) at 4° C. Following the incubation, the plate was washed thoroughly, by immersion, with de-ionized water and PBS (pH 6.5). The ELISA plate was then blocked with BSA (ICN Cat. No.160069, 3%, 200 μl per well) for 1 hour at Room Temperature (RT). Following blocking, the plate was washed with de-ionized water, and then with PBS (pH 6.5) containing Tween 20 (Sigma Cat. No. P-1379, 0.05%). Compounds were synthesized or purchased from ChemDiv Labs (San Diego, Calif.), dissolved in DMSO, diluted in PBS and added to the wells at various concentrations in the range of 0.01 to 300 μM. Recombinant Human L-Selectin/IgG (Research and Development Systems Cat. No.728-LS) dissolved in PBS supplemented with BSA (0.1%) and calcium chloride (1 mM) was added to the ELISA plate (100 μl per well) and incubated for 60 minutes at RT with shaking. Following incubation, the plate was washed with de-ionized water and three times with PBS (pH 6.5) containing Tween 20. Anti-Human IgG Peroxidase Conjugate (1:5000; Sigma Product No. A8667) diluted in PBS supplemented with BSA (0.1%) and calcium chloride (1 mM) was added to the ELISA plate (100 μl per well) and incubated for 30 minutes at RT with shaking. The plate was then washed with de-ionized water and three times with PBS (pH 6.5) containing Tween 20. The peroxidase substrate cromogen, TMB (Dako Cat. No. S1599) was added (100 μl per well) to the ELISA plate and incubated at room temperature. After 15 minutes ELISA Stop Solution (hydrochloric acid 1N, sulfuric acid 3N) was added (200 μl per well) to stop the peroxidase catalyzed colorimetric reaction. The Optical Density (OD) of the samples was measured at 450 nm using an ELISA plate reader (Dynatech MR5000). Data were analyzed with Graphpad Prism software and IC-50 values were established. The P-selectin assay was carried out in a similar fashion, except that Recombinant Human P-Selectin/IgG (Research and Development Systems Cat.No.137-PS) was used.
# [1] = tested on: immobilized heparin / L-selectin/IgG; experiment: Assay 1: direct interaction with heparin, pre-incubation versus co-incubation with L-selectin; type: binding; settings: compound 0.1-200 μM, 90 min, washed before L-selectin/IgG
# Protocol: Inhibitor Compounds at final concentration 0.1-200 μM were incubated in the ELISA plate for 90 min, and then washed with incubation buffer. After washing, L-selectin/IgG was added to the wells pre-incubated with compounds. At the same time, in separate control wells, L-selectin was co-incubated with inhibitor Compounds for 90 min. Following the incubation, L-selectin bound to the plate was quantified by antibody conjugated to Horse Radish Peroxidase and OD measurement as performed as described in Example 5.
# BALB/c mice [2] = experiment: Thioglycollate-induced leukocyte and neutrophil infiltration into mouse peritoneum; type: in vivo
# Protocol: The ability of compounds of the present invention to reduce leukocyte migration to sites of acute inflammation was evaluated in BALB/c mice using a thioglycolate-induced model of peritonitis. In this animal model, interactions of L- and P-selectin with HS-GAGs have been implicated in neutrophil infiltration (Nelson, R. M., 82:3253-3258, 1993; Xie, X. et al., J. Biol. Chem., 275:34818-34825, 2000).
# BALB/c mice (6 weeks old, ˜20 g in weight, 15 mice/group) received intraperitoneal injection of an inhibitor compound in 0.2 ml DMSO/Tween/sterile saline 1 hour before administration of thioglycollate (Sigma). Control groups received vehicle and sham controls received no thioglycollate. Mice were injected intraperitoneally with 1 ml of 3% thioglycollate broth (Xie, X. et al., J. Biol. Chem., 275, 34818-34825, 2000). Mice were sacrificed after 3 hours, and the peritoneal cavities were ravaged with […] of ice-cold saline containing 2 mM EDTA to prevent clotting. After red blood cell lysis, leukocytes were counted in a hemocytometer. Neutrophils were counted after staining with Türck. Data was expressed as mean±SEM, and statistical analysis was performed by Student t test. A value of P<0.05 was taken to denote statistical significance.
# BALB/c mice [3] = experiment: Carrageenan-induced paw edema; type: in vivo, mouse; settings: i.p. administration 60 min before carrageenan
# Protocol: Acute edema was induced in the left hind paw of Balb/c mice by injecting 0.02 ml of freshly prepared solution of 2% carrageenan after 60 min of test compound administration (Torres, S. R. et al., European Journal of Pharmacology 408: 199-211, 2000). The right paw received 0.02 ml of saline, which served as a control. Carrageenan was injected under the plantar region of right hind paw and the paw thickness was measured at 2, 4 and 24 hours after carrageenan challenge using a Mitutoyo engineer's micrometer expressed as the difference between right and left pad as mean±SEM. […] A dose response curve for Compound no.
# Mice = experiment: Delayed-type hypersensitivity (oxazolone, ear-swelling test); type: in vivo, mouse; settings: 3 mg/kg iv, 24 hours after challenge
# Protocol: Mice (15 animals per group) were sensitized by topical application of a 2% oxazolone (4-ethoxymethylene-2-phenyl-2-oxazoline-5-one; Sigma, St Louis, Mo.) solution in acetone/olive oil (4:1 vol/vol) to shaved abdomen (50 μl) and to each paw (5 μl) (Lange-Asschenfeldt B. et al., Blood 99:538-545, 2002). Five days after sensitization, right ears were challenged by topical application of 10 μl of a 1% oxazolone solution, whereas left ears were treated with vehicle alone. Compounds were administered 1 hr prior to challenge. The extent of inflammation was measured 24 hours after challenge, using the mouse ear-swelling test. The unpaired Student t test was used for statistical analyses.
structure (smiles),measurement,setting,value
"CCCCN(CC)S(=O)(=O)c1ccc(C(=O)Nc2sc3c(c2-c2nc4ccccc4s2)CCN(CC)C3)cc1 [Compound 5, 2-[[4-[(ethylbutylamino)sulfonyl]benzoyl]amino]-3-(benzothiazol-2-yl)-6-ethyl-4,5,6,7-tetrahydrothieno[2,3-c]pyridine]",inhibition at 50 µM,L-Selectin,62%
same,"level of inhibition of L-selectin binding to heparin, pre-incubation versus co-incubation",[1],same level of inhibition
same,reduction of leukocyte infiltration,BALB/c mice [2]; 2 mg/kg intraperitoneal,25%
same,reduction of leukocyte infiltration,BALB/c mice [2]; 10 mg/kg intraperitoneal,50%
same,reduction of leukocyte infiltration,BALB/c mice [2]; 50 mg/kg intraperitoneal,75%
same,neutrophil infiltration in mouse peritonitis (in words),"BALB/c mice [2]; FIG. 4, 2, 10, 50 mg/kg",dose-dependent inhibition
same,leukocyte migration into the peritoneal cavity (in words),"BALB/c mice [2]; intraperitoneal, 1 hour before thioglycollate, 3 hours",inhibited efficiently
same,carrageenan induced paw edema (in words),BALB/c mice [3],anti-inflammatory properties
same,"DTH, % of control value",Mice,56 % of control value

# Reference: patent publication US7365080B2, “Pharmaceutical compositions comprising thieno[2,3-c]pyridine derivatives and use thereof” (Rimonyx Pharmaceuticals Ltd., priority 2003, dated 2008)
